Source: patent US20140323307A1, “MANAGEMENT METHOD AND MANAGEMENT SYSTEM FOR BIOMASS AT PLANT HARVEST” (Japan Science and Technology Agency, priority 2011, published 2014)

Test system: Arabidopsis thaliana
Conditions: linolenic acid-deficient, linolenic acid-excess and wild-type strains; 2 mM GSH or 1 mM GSSG aqueous solution, 25 mL per three individuals, once a week for 5 weeks; FIG. 9
Protocol: Each strain of Arabidopsis thaliana tested here was grown in the following manner: seeds of three individuals of each strain of Arabidopsis thaliana were sown in a pot, and grown from when the seeds were sown to when the individuals bore seeds (grown for about 2.5 to 3 months) under the controlled condition where light intensity was approximately 100 μE·m^−2·S^−1, the light and dark cycle was set to 16 hours and 8 hours, and the temperature was 22° C. […] Above-ground parts of the obtained Arabidopsis thaliana were harvested, and dried for five or more days in a dry house having a humidity of 5% and a temperature of 20° C. After they were thoroughly dried, the total biomass of above-ground parts at harvest (dry weight of the entire above-ground parts) and seed yield (dry weight of harvested seeds) for each pot were measured. As for the linolenic acid-deficient strain (triple mutant), only the total biomass of above-ground parts at harvest was measured.

## N[C@@H](CCC(=O)N[C@@H](CS)C(=O)NCC(=O)O)C(=O)O [glutathione]
  biomass at harvest (total biomass of above-ground parts, dry weight; seed yield) compared to the controls: significantly increased in biomass
